Laboratory results reported in PubChem BioAssay AID1963968 (Molecular Pharmacology Branch, DTP, NCI, 2024).

Tested on: 945468-187-T-J3-PDC spheroids with HUVEC/MSC, viability
Test: Anticancer human tumor 945468-187-T-J3-PDC patient-derived rectal carcinoma cell line growth inhibition [PI3K]
Details: for viability, T/C: stronger effect = lower value
Description: Combinatorial screen of targeted agents with the PI3K inhibitors inavolisib, alpelisib, duvelisib, and copanlisib in multi-cell type tumor spheroids
A high-throughput screen of multi-cell type tumor spheroids was designed to identify active combinations of targeted small molecules and PI3K pathway inhibitors. Complex spheroids include a stromal component modeled by human endothelial cells (HUVEC) and fibroblasts modeled by human mesenchymal stem cells (MSCs). The concentration ranges selected for each drug and investigational agent were based upon clinically achievable concentrations if the clinical Cmax of the agent was known.
Compounds. The drugs and investigational agents: inavolisib (NSC800729), alpelisib (NSC765974), duvelisib (NSC772469), copanlisib (NSC816437), ipatasertib (NSC767898), afuresertib (NSC778305), talazoparib (NSC767125), sapanisertib (NSC764658), selumetinib (NSC741078), tovorafenib (DAY101, NSC766906), vemurafenib (NSC761431), ravoxertinib (NSC781343), sotorasib (NSC818433), MRTX1133 (NSC 836407), abemaciclib (NSC 768073), palbociclib (NSC758247), venetoclax (NSC 766270), SY5609 (NSC837396), enzalutamide (NSC755605), and darolutamide (NSC825331), were obtained from the National Cancer Institute (NCI) Developmental Therapeutics Program Chemical Repository. The FDA-approved anticancer drug set is available from the NCI Developmental Therapeutics Program. […] The stock solutions were prepared in dimethyl sulfoxide (DMSO, Sigma-Aldrich, St. Louis, MO, cat. D2650) at 800-fold the tested concentration and stored at -70 degrees C prior to their use. All drugs and investigational agents were tested over a range starting from a high concentration at or near the clinical Cmax and decreasing in half-log increments. If the clinical Cmax for an agent had not been determined, the highest concentration tested was 10 microM.
Cell Culture. All cells were maintained in an incubator at 37 degrees C and 5% CO2 with 95% humidity. The PDC lines were cultured according to standard operating procedures established by the NCI PDMR (https://pdmr.cancer.gov/sops/default.htm). All PDCs were thawed and cultured in Matrigel-coated flasks prepared with a working solution of 1X Ham's F-12 nutrient mix, without supplementation (Invitrogen, Waltham, MA, cat. 11765054), 100 U/mL penicillin-streptomycin (Invitrogen, cat. 15140122), and 2.5% Matrigel (Corning Inc., Corning, NY, cat. 354248) for the first three passages. The 354836-022-R-J1-PDC, 475296-252-R-J1-PDC, and 997726-040-R-J2-PDC lines were cultured in 6A media, which includes advanced DMEM/F-12 (Thermo Fisher Scientific, cat. 12634028), 10 mM HEPES (Thermo Fisher Scientific, cat. 15630080), 1X GlutaMAX supplement (Thermo Fisher Scientific, cat. 35050061), 0.1 mg/mL primocin (InvivoGen, San Diego, CA, cat. ant-pm-2), 10% defined fetal bovine serum, heat inactivated (HyClone Laboratories Inc., Logan, UT, cat. SH30070.03HI), 50% L-WRN conditioned media (ATCC, cat. CRL-3276), 1.25 mM N-Acetyl-L-cysteine (Sigma-Aldrich, cat. A9165), 10 mM nicotinamide (Sigma-Aldrich, cat. N0636), 1X B-27 supplement (Thermo Fisher Scientific, cat. 17504044), 1X N-2 supplement (Thermo Fisher Scientific, cat. 17502048), and 10 microM Y-27632 dihydrochloride (Tocris Bioscience, Bristol, United Kingdom, cat. 1254). The 624824-186-R-J2-PDC line was cultured in 6C/Colon 1B media, which includes all 6A media components plus 50 ng/mL human EGF recombinant protein (Thermo Fisher Scientific, cat. PHG0311). […]

[1] = curve of first compound, second compound 0.0316 µM
[2] = curve of first compound, second compound 0.1 µM
[3] = curve of first compound, second compound 0.316 µM
[4] = curve of first compound, second compound 1 µM
[5] = second compound 0.0316 µM, first compound 0.0316 µM
[6] = second compound 0.0316 µM, first compound 0.1 µM
[7] = second compound 0.0316 µM, first compound 0.316 µM
[8] = second compound 0.0316 µM, first compound 1 µM
[9] = second compound 0.1 µM, first compound 0.0316 µM
[10] = second compound 0.1 µM, first compound 0.1 µM
[11] = second compound 0.1 µM, first compound 0.316 µM
[12] = second compound 0.1 µM, first compound 1 µM
[13] = second compound 0.316 µM, first compound 0.0316 µM
[14] = second compound 0.316 µM, first compound 0.1 µM
[15] = second compound 0.316 µM, first compound 0.316 µM
[16] = second compound 0.316 µM, first compound 1 µM
[17] = second compound 1 µM, first compound 0.0316 µM
[18] = second compound 1 µM, first compound 0.1 µM
[19] = second compound 1 µM, first compound 0.316 µM
[20] = second compound 1 µM, first compound 1 µM
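Further: spheroids exposed to agents for 7 days before viability read.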
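Wherever viability, T/C is given: 100% = DMSO vehicle control viability.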

Structure (SMILES): CC(C)NCC(C(=O)N1CCN(c2ncnc3c2C(C)CC3O)CC1)c1ccc(Cl)cc1 (stereo not given) + Cc1nc(NC(=O)N2CCCC2C(N)=O)sc1-c1ccnc(C(C)(C)C(F)(F)F)c1
- IC50 [1]: > 10000 nM
- IC50 [2]: > 10000 nM
- IC50 [3]: 5360 nM
- IC50 [4]: 2900 nM
- IC50 (curve of first compound, second compound 3.16 µM): 1710 nM
- IC50 (curve of first compound, second compound 10 µM): 303 nM
- viability, T/C [5]: 109%
- viability, T/C [6]: 116%
- viability, T/C [7]: 84.4%
- viability, T/C [8]: 94.1%
- viability, T/C (second compound 0.0316 µM, first compound 3.16 µM): 76.9%
- viability, T/C (second compound 0.0316 µM, first compound 10 µM): 55%
- viability, T/C [9]: 103%
- viability, T/C [10]: 101%
- viability, T/C [11]: 93.3%
- viability, T/C [12]: 91.8%
- viability, T/C (second compound 0.1 µM, first compound 3.16 µM): 80.6%
- viability, T/C (second compound 0.1 µM, first compound 10 µM): 54.6%
- viability, T/C [13]: 114%
- viability, T/C [14]: 104%
- viability, T/C [15]: 99.4%
- viability, T/C [16]: 88.3%
- viability, T/C (second compound 0.316 µM, first compound 3.16 µM): 60%
- viability, T/C (second compound 0.316 µM, first compound 10 µM): 36.4%
- viability, T/C [17]: 99.6%
- viability, T/C [18]: 104%
- viability, T/C [19]: 91.9%
- viability, T/C [20]: 80.7%
- viability, T/C (second compound 1 µM, first compound 3.16 µM): 46.5%
- viability, T/C (second compound 1 µM, first compound 10 µM): 32.6%
- viability, T/C (second compound 3.16 µM, first compound 0.0316 µM): 92.6%
- viability, T/C (second compound 3.16 µM, first compound 0.1 µM): 87.8%
- viability, T/C (second compound 3.16 µM, first compound 0.316 µM): 82.1%
- viability, T/C (second compound 3.16 µM, first compound 1 µM): 59.3%
- viability, T/C (second compound 3.16 µM, first compound 3.16 µM): 38.9%
- viability, T/C (second compound 3.16 µM, first compound 10 µM): 27.1%
- viability, T/C (second compound 10 µM, first compound 0.0316 µM): 68.9%
- viability, T/C (second compound 10 µM, first compound 0.1 µM): 54.6%
- viability, T/C (second compound 10 µM, first compound 0.316 µM): 51%
- viability, T/C (second compound 10 µM, first compound 1 µM): 45%
- viability, T/C (second compound 10 µM, first compound 3.16 µM): 36.9%
- viability, T/C (second compound 10 µM, first compound 10 µM): 33.2%

Structure (SMILES): CC(C)NCC(C(=O)N1CCN(c2ncnc3c2C(C)CC3O)CC1)c1ccc(Cl)cc1 (stereo not given)
- viability, T/C (compound 0.0316 µM): 92.6% [middle of 4 runs]
- viability, T/C (compound 0.316 µM): 100% [middle of 4 runs]
- viability, T/C (compound 1 µM): 94.6% [middle of 4 runs]
- viability, T/C (compound 3.16 µM): 65.2% [middle of 4 runs]
- viability, T/C (compound 10 µM): 39.3% [middle of 4 runs]

Structure (SMILES): CC(Nc1ccc2c(c1)OCCn1cc(N3C(=O)OCC3C(F)F)nc1-2)C(N)=O (stereo not given)
- viability, T/C (compound 0.00316 µM): 103% [middle of 7 runs]
- viability, T/C (compound 0.01 µM): 97.2% [middle of 7 runs]
- viability, T/C (compound 0.0316 µM): 99.6% [middle of 7 runs]
- viability, T/C (compound 0.316 µM): 99.6% [middle of 7 runs]
- viability, T/C (compound 1 µM): 73% [middle of 7 runs]
- IC50 (compound alone, run of 06/12/2023): > 1000 nM

Structure (SMILES): CCN1CCN(Cc2ccc(Nc3ncc(F)c(-c4cc(F)c5nc(C)n(C(C)C)c5c4)n3)nc2)CC1 + COc1c(OCCCN2CCOCC2)ccc2c3n(c(=NC(=O)c4cnc(N)nc4)nc12)CCN3
- IC50 (curve of first compound, second compound 0.00316 µM): > 1000 nM
- IC50 (curve of first compound, second compound 0.01 µM): 662 nM
- IC50 [1]: 256 nM
- IC50 [2]: 5.32 nM
- IC50 [3]: < 3.16 nM
- IC50 [4]: < 3.16 nM
- viability, T/C (second compound 0.00316 µM, first compound 0.00316 µM): 88.6%
- viability, T/C (second compound 0.00316 µM, first compound 0.01 µM): 83.6%
- viability, T/C (second compound 0.00316 µM, first compound 0.0316 µM): 80.5%
- viability, T/C (second compound 0.00316 µM, first compound 0.1 µM): 82.3%
- viability, T/C (second compound 0.00316 µM, first compound 0.316 µM): 95.2%
- viability, T/C (second compound 0.00316 µM, first compound 1 µM): 53.5%
- viability, T/C (second compound 0.01 µM, first compound 0.00316 µM): 107%
- viability, T/C (second compound 0.01 µM, first compound 0.01 µM): 82.3%
- viability, T/C (second compound 0.01 µM, first compound 0.0316 µM): 110%
- viability, T/C (second compound 0.01 µM, first compound 0.1 µM): 89.8%
- viability, T/C (second compound 0.01 µM, first compound 0.316 µM): 79.4%
- viability, T/C (second compound 0.01 µM, first compound 1 µM): 33.8%
- viability, T/C (second compound 0.0316 µM, first compound 0.00316 µM): 90.2%
- viability, T/C (second compound 0.0316 µM, first compound 0.01 µM): 81.8%
- viability, T/C [5]: 82.2%
- viability, T/C [6]: 75.1%
- viability, T/C [7]: 44.3%
- viability, T/C [8]: 22.3%
- viability, T/C (second compound 0.1 µM, first compound 0.00316 µM): 57%
- viability, T/C (second compound 0.1 µM, first compound 0.01 µM): 41.3%
- viability, T/C [9]: 30.7%
- viability, T/C [10]: 24.1%
- viability, T/C [11]: 18.2%
- viability, T/C [12]: 17.9%
- viability, T/C (second compound 0.316 µM, first compound 0.00316 µM): 25.4%
- viability, T/C (second compound 0.316 µM, first compound 0.01 µM): 16.3%
- viability, T/C [13]: 14.8%
- viability, T/C [14]: 16.9%
- viability, T/C [15]: 17.1%
- viability, T/C [16]: 16.6%
- viability, T/C (second compound 1 µM, first compound 0.00316 µM): 15.2%
- viability, T/C (second compound 1 µM, first compound 0.01 µM): 16.1%
- viability, T/C [17]: 13.6%
- viability, T/C [18]: 16.8%
- viability, T/C [19]: 19%
- viability, T/C [20]: 16.4%
